From article PMC12412055, “Parallel synthesis of 5′-amino-5′-deoxy-adenosine derivatives for focused chemical space exploration and their application as methyltransferase inhibitors” (RSC Medicinal Chemistry, 2025)
Values joined by “and” are separate entries in the source; they are usually repeats but may differ in a detail not shown here. Identical values can stand only once. Like-named read-outs stand apart in the source and are kept apart here.

Tests used:
METTL3/14 [1] = biological target: T1, METTL3/14 (Homo sapiens, UniProt Q86U44); experiment: Fluorescence polarization (FP) FTAD displacement assay, METTL3/14; type: binding; conditions: for KD (METTL3/14, FP-assay) / Kd / displacement of FTAD: 50 nM FTAD, 1 μM enzyme; for KD (METTL3/14, FP-assay) / Kd: compound dilution series; for displacement of FTAD: 100 μM compound
T1 construct: human METTL3 (UniProt: Q86U44 aa 252–580); Strep tag-II (C); made in house; host or cells: E. coli BL21(DE3), pETduet-1

SARS-CoV-2 nsp14/10 = SARS-CoV-2 nsp14/10 (Severe acute respiratory syndrome coronavirus 2, UniProt P0DTD1); experiment: Fluorescence polarization (FP) FTAD displacement assay, nsp14/10; type: binding; conditions: for displacement of FTAD: 1 μM compound; for Kd: 50 nM FTAD
nsp14/10 [2] = biological target: T2, nsp14/10 (Severe acute respiratory syndrome coronavirus 2, UniProt P0DTD1); experiment: biochemical; type: binding; conditions: for Kd: read-out: KD (ITC)
nsp14/10 [3] = biological target: T2, nsp14/10; conditions: cited from earlier work
METTL3/14 [4] = biological target: T1, METTL3/14; set-up: method as in PMID 39145518; conditions: probe affinity; read-out: KD of FTAD for METTL3/14; cited from earlier work
nsp14/10 [5] = biological target: T2, nsp14/10; experiment: Microscale thermophoresis (MST) FTAD displacement assay; type: binding; conditions: 50 nM FTAD, 3-fold dilution series of nsp14/10
human DNMT2 = biological target: human DNMT2; set-up: method as in PMID 39145518; conditions: probe affinity; read-out: KD of FTAD for DNMT2; cited from earlier work
[6] = mean ± standard deviation from duplicate measurements, 25 °C
[7] = single measurement (one of duplicates)
[8] = ligand 0.305 µM, dilution series
[9] = ligand 0.914 µM, dilution series
[10] = ligand 2.74 µM, dilution series
[11] = ligand 8.22 µM, dilution series
[12] = ligand 24.7 µM, dilution series
[13] = ligand 74.0 µM, dilution series
[14] = ligand 100 µM, triplicate wells
[15] = ligand 100 µM, triplicate wells, enzyme not printed in Table S4
[16] = 1 μM enzyme, compound dilution series, read-out: KD (nsp14/10, determined by FP-assay)

T1 sequence (Q86U44 252-580): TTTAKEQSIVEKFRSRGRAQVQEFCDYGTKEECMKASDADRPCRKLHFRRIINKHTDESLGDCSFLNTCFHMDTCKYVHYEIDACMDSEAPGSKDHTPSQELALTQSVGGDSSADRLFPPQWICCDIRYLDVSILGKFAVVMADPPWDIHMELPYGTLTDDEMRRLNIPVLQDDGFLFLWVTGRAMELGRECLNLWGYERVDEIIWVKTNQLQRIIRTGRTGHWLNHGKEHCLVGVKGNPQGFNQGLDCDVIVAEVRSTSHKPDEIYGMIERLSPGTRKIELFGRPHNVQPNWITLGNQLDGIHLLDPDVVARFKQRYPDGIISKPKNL
T1 sequence (Q9HCE5 108-444 partner limits assumed): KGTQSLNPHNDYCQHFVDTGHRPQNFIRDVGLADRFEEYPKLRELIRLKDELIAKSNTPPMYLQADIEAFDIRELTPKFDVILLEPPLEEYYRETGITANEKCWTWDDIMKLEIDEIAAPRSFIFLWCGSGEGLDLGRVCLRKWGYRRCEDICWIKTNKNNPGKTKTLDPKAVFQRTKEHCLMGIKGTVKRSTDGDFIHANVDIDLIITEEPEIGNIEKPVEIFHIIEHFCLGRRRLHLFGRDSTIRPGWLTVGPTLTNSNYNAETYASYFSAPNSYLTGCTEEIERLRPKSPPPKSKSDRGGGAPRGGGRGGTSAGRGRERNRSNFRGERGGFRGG

Nc1ncnc2c1ncn2[C@@H]1O[C@H](CNS(=O)(=O)c2ccc3ccccc3c2)[C@@H](O)[C@H]1O [Compound 34, N-(((2R,3S,4R,5R)-5-(6-Amino-9H-purin-9-yl)-3,4-dihydroxy-tetrahydrofuran-2-yl)methyl)naphthalene-2-sulfonamide]
KD (METTL3/14, FP-assay) (METTL3/14 [1]): low micromolar affinity | Kd (METTL3/14 [1]): 12900 ± 2000 nM | displacement of FTAD (METTL3/14 [1]): ~92% | displacement of FTAD (SARS-CoV-2 nsp14/10): 100% | KD (ITC) (nsp14/10 [2]; [6]): nanomolar range | -T∆S (ITC) (nsp14/10 [2]; [7]): 12 kcal/mol and 14.9 kcal/mol | stoichiometry n (ITC) (nsp14/10 [2]; [7]): 0.66 and 0.67 | Kd (nsp14/10 [2]; [7]): 165 nM and 214 nM | binding and inhibition of nsp14/10 (nsp14/10 [3]): nanomolar range

Nc1ncnc2c1ncn2[C@@H]1O[C@H](CNS(=O)(=O)/C=C/c2ccccc2)[C@@H](O)[C@H]1O [Compound 35, (E)-N-(((2R,3S,4R,5R)-5-(6-Amino-9H-purin-9-yl)-3,4-di-hydroxytetrahydrofuran-2-yl)methyl)-2-phenylethene-1-sulfonamide]
displacement of FTAD (SARS-CoV-2 nsp14/10): 100% | ΔH (ITC) (nsp14/10 [2]; mean ± standard deviation from duplicate measurements): -32.86 kcal/mol | KD (ITC) (nsp14/10 [2]; [6]): nanomolar range | -T∆S (ITC) (nsp14/10 [2]; [7]): 24.6 kcal/mol and 22.5 kcal/mol | stoichiometry n (ITC) (nsp14/10 [2]; [7]): 0.42 and 0.45 | Kd (nsp14/10 [2]; [7]): 151 nM and 169 nM

Nc1ncnc2c1ncn2[C@@H]1O[C@H](CNS(=O)(=O)c2ccc(-c3ccccc3)cc2)[C@@H](O)[C@H]1O [Compound 40, N-(((2R,3S,4R,5R)-5-(6-Amino-9H-purin-9-yl)-3,4-dihydroxy-tetrahydrofuran-2-yl)methyl)-[1,1′-biphenyl]-4-sulfonamide]
KD (METTL3/14, FP-assay) (METTL3/14 [1]): low micromolar affinity | Kd (METTL3/14 [1]): 16100 ± 4600 nM | displacement of FTAD (METTL3/14 [1]): ~92%

CN(C)c1cccc2c(S(=O)(=O)NC[C@H]3O[C@@H](n4cnc5c(N)ncnc54)[C@H](O)[C@@H]3O)cccc12 [Compound 42, N-(((2R,3S,4R,5R)-5-(6-Amino-9H-purin-9-yl)-3,4-dihydroxy-tetrahydrofuran-2-yl)methyl)-5-(dimethylamino)naphthalen-1-sulfonamide]
KD (METTL3/14, FP-assay) (METTL3/14 [1]): low micromolar affinity | Kd (METTL3/14 [1]): 22500 ± 1400 nM | displacement of FTAD (METTL3/14 [1]): ~92% | fluorescence polarization, raw data (METTL3/14 [1]; [8]): 144 mP and 142 mP and 140 mP | total intensity, raw data (METTL3/14 [1]; [8]): 16997 and 14743 and 15446 | fluorescence polarization, raw data (METTL3/14 [1]; [9]): 131 mP and 134 mP and 139 mP | total intensity, raw data (METTL3/14 [1]; [9]): 16613 and 15443 and 18075 | fluorescence polarization, raw data (METTL3/14 [1]; [10]): 128 mP and 126 mP | total intensity, raw data (METTL3/14 [1]; [10]): 15091 and 15438 and 15739 | fluorescence polarization, raw data (METTL3/14 [1]; [11]): 116 mP and 113 mP and 115 mP | total intensity, raw data (METTL3/14 [1]; [11]): 16190 and 14718 and 16069 | fluorescence polarization, raw data (METTL3/14 [1]; [12]): 90 mP and 84 mP and 93 mP | total intensity, raw data (METTL3/14 [1]; [12]): 17750 and 16617 and 17703 | fluorescence polarization, raw data (METTL3/14 [1]; [13]): 40 mP and 43 mP and 54 mP | total intensity, raw data (METTL3/14 [1]; [13]): 17281 and 16313 and 18091 | total intensity, raw data (METTL3/14 [1]; [14]): 18205 and 16177 and 16524 | fluorescence polarization, raw data (METTL3/14 [1]; [15]): 44 mP and 42 mP and 39 mP | fluorescence polarization, raw data (METTL3/14 [1]; ligand 222 µM, dilution series): 23 mP and 28 mP and 40 mP | total intensity, raw data (METTL3/14 [1]; ligand 222 µM, dilution series): 22984 and 20625 and 20534 | fluorescence polarization, raw data (METTL3/14 [1]; ligand 666 µM, dilution series): 30 mP and 36 mP and 33 mP | total intensity, raw data (METTL3/14 [1]; ligand 666 µM, dilution series): 25251 and 24796 and 26626

Nc1ncnc2c1ncn2[C@@H]1O[C@H](CNS(=O)(=O)c2ccc(Br)c([N+](=O)[O-])c2)[C@@H](O)[C@H]1O [Compound 44, N-(((2R,3S,4R,5R)-5-(6-Amino-9H-purin-9-yl)-3,4-dihydroxytetrahydrofuran-2-yl)methyl)-4-bromo-3-nitrobenzenesulfon amide]
inhibition of nsp14/10 (nsp14/10 [3]): low micromolar range

Nc1ncnc2c1ncn2[C@@H]1O[C@H](CNS(=O)(=O)c2ccc(Cl)c(C(F)(F)F)c2)[C@@H](O)[C@H]1O [Compound 46, N-(((2R,3S,4R,5R)-5-(6-Amino-9H-purin-9-yl)-3,4-dihydroxy-tetrahydrofuran-2-yl)methyl)-4-chloro-3-(trifluoromethyl) benzenesulfonamide]
displacement of FTAD (SARS-CoV-2 nsp14/10): 100% | KD (ITC) (nsp14/10 [2]; [6]): nanomolar range | Kd (nsp14/10 [2]; [6]): 106 ± 6 nM | -T∆S (ITC) (nsp14/10 [2]; [7]): 15.8 kcal/mol and 13.8 kcal/mol | stoichiometry n (ITC) (nsp14/10 [2]; [7]): 0.43 and 0.44 | Kd (nsp14/10 [2]; [7]): 111 nM and 100 nM

Cc1ccc(S(=O)(=O)NC[C@H]2O[C@@H](n3cnc4c(N)ncnc43)[C@H](O)[C@@H]2O)cc1[N+](=O)[O-] [Compound 47, N-(((2R,3S,4R,5R)-5-(6-Amino-9H-purin-9-yl)-3,4-dihydroxy-tetrahydrofuran-2-yl)methyl)-4-methyl-3-nitrobenzenesulfon amide]
inhibition of nsp14/10 (nsp14/10 [3]): low micromolar range

Nc1ncnc2c1ncn2[C@@H]1O[C@H](CNC(=O)Cc2cccc(F)c2Br)[C@@H](O)[C@H]1O [Compound 63, N-(((2R,3S,4R,5R)-5-(6-Amino-9H-purin-9-yl)-3,4-dihydroxytetra hydrofuran-2-yl)methyl)-2-(2-bromo-3-fluorophenyl)acetamide]
Kd (SARS-CoV-2 nsp14/10; [16]): 17200 ± 5500 nM

Cc1cccc(-c2cncc(C(=O)NC[C@H]3O[C@@H](n4cnc5c(N)ncnc54)[C@H](O)[C@@H]3O)c2)c1 [Compound 64, N-(((2R,3S,4R,5R)-5-(6-Amino-9H-purin-9-yl)-3,4-dihydroxytetra hydrofuran-2-yl)methyl)-5-(m-tolyl)nicotinamide]
Kd (SARS-CoV-2 nsp14/10; [16]): 2900 ± 380 nM

Nc1ncnc2c1ncn2[C@@H]1O[C@H](CNS(=O)(=O)Cc2ccc3ccccc3c2)[C@@H](O)[C@H]1O [Compound 65, N-(((2R,3S,4R,5R)-5-(6-Amino-9H-purin-9-yl)-3,4-dihydroxytetra hydrofuran-2-yl)methyl)-1-(naphthalen-2-yl)methanesulfon amide]
Kd (SARS-CoV-2 nsp14/10; [16]): 3800 ± 780 nM

Nc1ncnc2c1ncn2[C@@H]1O[C@H](CNS(=O)(=O)Cc2ccccc2)[C@@H](O)[C@H]1O [Compound 66, N-(((2R,3S,4R,5R)-5-(6-Amino-9H-purin-9-yl)-3,4-dihydroxytetra hydrofuran-2-yl)methyl)-1-phenylmethanesulfonamide]
Kd (SARS-CoV-2 nsp14/10; [16]): 42300 ± 11100 nM

Nc1ncnc2c1ncn2[C@@H]1O[C@H](CN(CC[C@H](N)C(=O)O)Cc2cn(CCNC(=O)c3ccc4c(c3)C(=O)OC43c4ccc(O)cc4Oc4cc(O)ccc43)nn2)[C@@H](O)[C@H]1O [FTAD, 5-FAM-triazolyl-adenosyl-diaminobutyric acid]
Kd (METTL3/14 [4]): 1100 ± 100 nM | Kd (nsp14/10 [5]): 1200 ± 100 nM | Kd (human DNMT2): 6400 ± 700 nM | Kd (SARS-CoV-2 nsp14/10; 2-fold dilution series of nsp14/10 from 3.00 μM to 46.9 nM, read-out: KD(FTAD, nsp14/10), FP-assay): 1300 ± 300 nM

Nc1ncnc2c1ncn2[C@@H]1O[C@H](CSCC[C@H](N)C(=O)O)[C@@H](O)[C@H]1O [SAH, S-adenosyl-L-homocysteine, reference compound]
total intensity, raw data (METTL3/14 [1]; [14]): 15527 and 14218 and 14357 | fluorescence polarization, raw data (METTL3/14 [1]; [15]): 13 mP and 7 mP and 8 mP

Nc1ncnc2c1ncn2[C@@H]1O[C@H](C[C@@H](N)CC[C@H](N)C(=O)O)[C@@H](O)[C@H]1O [SFG, sinefungin, reference compound]
displacement of FTAD (METTL3/14 [1]): 92%
